From US20060069132A1, “Azolecarboxamide herbicides” (priority 2004, published 2006)

What was measured:
bermudagrass = test: Test C pre-/postemergence herbicide test; format: in vivo, Cynodon dactylon
How it was run: (§1)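 Visual injury scores run from 0 (no effect) to 100 (complete control), assessed relative to untreated controls 12 to 14 days after treatment in the greenhouse. Chemicals were formulated in a non-phytotoxic solvent mixture with surfactant and applied to soil after planting or to emerged plants at the 1- to 4-leaf stage.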

cocklebur = test: Test C pre-/postemergence herbicide test; format: in vivo, Xanthium strumarium
How it was run: as §1

corn = test: Test C pre-/postemergence herbicide test; format: in vivo, Zea mays
How it was run: as §1

woolly cupgrass = test: Test C pre-/postemergence herbicide test; format: in vivo, Eriochloa villosa
How it was run: as §1

giant foxtail = test: Test C pre-/postemergence herbicide test; format: in vivo, Setaria faberi
How it was run: as §1

goosegrass = test: Test C pre-/postemergence herbicide test; format: in vivo, Eleusine indica
How it was run: as §1

kochia = test: Test C pre-/postemergence herbicide test; format: in vivo, Kochia scoparia
How it was run: as §1

morningglory = test: Test C pre-/postemergence herbicide test; format: in vivo, Ipomoea coccinea
How it was run: as §1

yellow nutsedge = test: Test C pre-/postemergence herbicide test; format: in vivo, Cyperus esculentus
How it was run: as §1

soybean = test: Test C pre-/postemergence herbicide test; format: in vivo, Glycine max
How it was run: as §1

velvetleaf = test: Test C pre-/postemergence herbicide test; format: in vivo, Abutilon theophrasti
How it was run: as §1

barnyardgrass = test: Test C flooded paddy test; format: in vivo, Echinochloa crus-galli; settings: Echinochloa crus-galli
How it was run: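 Plants were grown to the 1- to 4-leaf stage (2–18 cm) and then treated postemergence, or grown to the 2-leaf stage for the flooded paddy test. They were held in a greenhouse for 12 to 14 days and then scored by eye against controls, where 0 is no effect and 100 is complete control.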

CCn1nc2c(c1C(=O)Nc1cc(C(=O)N(C)C)ccc1F)CCC2(C)C [Compound 352, N-[5-[(dimethylamino)carbonyl]-2-fluorophenyl]-2-ethyl-2,4,5,6-tetrahydro-6,6-dimethyl-3-cyclopentapyrazolecarboxamide]
Plant response rating (0 = no effect, 100 = complete control), Bermudagrass (bermudagrass; 125 g ai/ha, preemergence): 100 | pest or weed control at 62 g/ha (bermudagrass; Cynodon dactylon, pre-emergence, 312 h, 62 g ai/ha, preemergence, scale 0 to 100, 0 no effect, 100 complete control, read-out: Plant response rating, Bermudagrass): 95% | pest or weed control at 250 g/ha (bermudagrass; Cynodon dactylon, pre-emergence, 312 h, 250 g ai/ha, scale 0-100, read-out: Plant response rating, Bermudagrass): 100% | pest or weed control at 500 g/ha (bermudagrass; Cynodon dactylon, pre-emergence, 312 h, 500 g ai/ha, scale 0 to 100 (0 no effect, 100 complete control), visual, 12 to 14 days, read-out: Plant response rating, Bermudagrass): 100% | Plant response rating (0 = no effect, 100 = complete control), Cocklebur (cocklebur; 125 g ai/ha, preemergence): 0 | pest or weed control at 62 g/ha (cocklebur; Xanthium strumarium, pre-emergence, 312 h, 62 g ai/ha, preemergence, scale 0 to 100, read-out: Plant response rating, Cocklebur): 0% | pest or weed control at 250 g/ha (cocklebur; Xanthium strumarium, pre-emergence, 312 h, 250 g ai/ha, scale 0-100, read-out: Plant response rating, Cocklebur): 0% | pest or weed control at 500 g/ha (cocklebur; Xanthium strumarium, pre-emergence, 312 h, 500 g ai/ha, scale 0 to 100 (0 no effect, 100 complete control), visual, 12 to 14 days, read-out: Plant response rating, Cocklebur): 30% | Plant response rating (0 = no effect, 100 = complete control), Corn (corn; 125 g ai/ha, preemergence): 15 | Corn plant response rating (crop injury, 0 = no effect, 100 = complete kill) at 62 g/ha (corn; Zea mays, pre-emergence, 312 h, 62 g ai/ha, preemergence, scale 0 to 100): 0% | Corn plant response rating (crop injury, 0 = no effect, 100 = complete kill) at 250 g/ha (corn; Zea mays, pre-emergence, 312 h, 250 g ai/ha, scale 0-100): 30% | Corn plant response rating (crop injury, 0 = no effect, 100 = complete kill) at 500 g/ha (corn; Zea mays, pre-emergence, 312 h, 500 g ai/ha, scale 0 to 100 (0 no effect, 100 complete control), visual, 12 to 14 days): 50% | Plant response rating (0 = no effect, 100 = complete control), Cupgrass, Woolly (woolly cupgrass; 125 g ai/ha, preemergence): 50 | pest or weed control at 62 g/ha (woolly cupgrass; Eriochloa villosa, pre-emergence, 312 h, 62 g ai/ha, preemergence, scale 0 to 100, read-out: Plant response rating, Cupgrass, Woolly): 5% | pest or weed control at 250 g/ha (woolly cupgrass; Eriochloa villosa, pre-emergence, 312 h, 250 g ai/ha, scale 0-100, read-out: Plant response rating, Cupgrass, Woolly): 60% | pest or weed control at 500 g/ha (woolly cupgrass; Eriochloa villosa, pre-emergence, 312 h, 500 g ai/ha, scale 0 to 100 (0 no effect, 100 complete control), visual, 12 to 14 days, read-out: Plant response rating, Cupgrass, Woolly): 85% | Plant response rating (0 = no effect, 100 = complete control), Foxtail, Giant (giant foxtail; 125 g ai/ha, preemergence): 60 | pest or weed control at 62 g/ha (giant foxtail; Setaria faberi, pre-emergence, 312 h, 62 g ai/ha, preemergence, scale 0 to 100, read-out: Plant response rating, Foxtail, Giant): 5% | pest or weed control at 250 g/ha (giant foxtail; Setaria faberi, pre-emergence, 312 h, 250 g ai/ha, scale 0-100, read-out: Plant response rating, Foxtail, Giant): 100% | pest or weed control at 500 g/ha (giant foxtail; Setaria faberi, pre-emergence, 312 h, 500 g ai/ha, scale 0 to 100 (0 no effect, 100 complete control), visual, 12 to 14 days, read-out: Plant response rating, Foxtail, Giant): 100% | Plant response rating (0 = no effect, 100 = complete control), Goosegrass (goosegrass; 125 g ai/ha, preemergence): 85 | pest or weed control at 62 g/ha (goosegrass; Eleusine indica, pre-emergence, 312 h, 62 g ai/ha, preemergence, scale 0 to 100, read-out: Plant response rating, Goosegrass): 80% | pest or weed control at 250 g/ha (goosegrass; Eleusine indica, pre-emergence, 312 h, 250 g ai/ha, scale 0-100, read-out: Plant response rating, Goosegrass): 100% | pest or weed control at 500 g/ha (goosegrass; Eleusine indica, pre-emergence, 312 h, 500 g ai/ha, scale 0 to 100 (0 no effect, 100 complete control), visual, 12 to 14 days, read-out: Plant response rating, Goosegrass): 100% | Plant response rating (0 = no effect, 100 = complete control), Kochia (kochia; 125 g ai/ha, preemergence): 85 | pest or weed control at 62 g/ha (kochia; Bassia scoparia, pre-emergence, 62 g ai/ha, preemergence, scale 0 to 100, read-out: Plant response rating, Kochia): 80% | pest or weed control at 250 g/ha (kochia; Bassia scoparia, pre-emergence, 250 g ai/ha, scale 0-100, read-out: Plant response rating, Kochia): 100% | pest or weed control at 500 g/ha (kochia; Bassia scoparia, pre-emergence, 500 g ai/ha, scale 0 to 100 (0 no effect, 100 complete control), visual, 12 to 14 days, read-out: Plant response rating, Kochia): 100% | Plant response rating (0 = no effect, 100 = complete control), Morningglory (morningglory; 125 g ai/ha, preemergence): 5 | pest or weed control at 62 g/ha (morningglory; Ipomoea, pre-emergence, 62 g ai/ha, preemergence, scale 0 to 100, read-out: Plant response rating, Morningglory): 5% | pest or weed control at 250 g/ha (morningglory; Ipomoea, pre-emergence, 250 g ai/ha, scale 0-100, read-out: Plant response rating, Morningglory): 40% | pest or weed control at 500 g/ha (morningglory; Ipomoea, pre-emergence, 500 g ai/ha, scale 0 to 100 (0 no effect, 100 complete control), visual, 12 to 14 days, read-out: Plant response rating, Morningglory): 60% | Plant response rating (0 = no effect, 100 = complete control), Nutsedge, Yellow (yellow nutsedge; 125 g ai/ha, preemergence): 0 | pest or weed control at 62 g/ha (yellow nutsedge; Cyperus, pre-emergence, 62 g ai/ha, preemergence, scale 0 to 100, read-out: Plant response rating, Nutsedge, Yellow): 0% | pest or weed control at 250 g/ha (yellow nutsedge; Cyperus, pre-emergence, 250 g ai/ha, scale 0-100, read-out: Plant response rating, Nutsedge, Yellow): 10% | pest or weed control at 500 g/ha (yellow nutsedge; Cyperus, pre-emergence, 500 g ai/ha, scale 0 to 100 (0 no effect, 100 complete control), visual, 12 to 14 days, read-out: Plant response rating, Nutsedge, Yellow): 50% | Plant response rating (0 = no effect, 100 = complete control), Soybean (soybean; 125 g ai/ha, preemergence): 15 | plant injury at 62 g/ha (soybean; Glycine max, pre-emergence, 62 g ai/ha, preemergence, scale 0 to 100, read-out: Plant response rating, Soybean): 0% | plant injury at 250 g/ha (soybean; Glycine max, pre-emergence, 250 g ai/ha, scale 0-100, read-out: Plant response rating, Soybean): 50% | plant injury at 500 g/ha (soybean; Glycine max, pre-emergence, 500 g ai/ha, scale 0 to 100 (0 no effect, 100 complete control), visual, 12 to 14 days, read-out: Plant response rating, Soybean): 70% | Plant response rating (0 = no effect, 100 = complete control), Velvetleaf (velvetleaf; 125 g ai/ha, preemergence): 5 | pest or weed control at 62 g/ha (velvetleaf; Abutilon theophrasti, pre-emergence, 62 g ai/ha, preemergence, scale 0 to 100, read-out: Plant response rating, Velvetleaf): 0% | pest or weed control at 250 g/ha (velvetleaf; Abutilon theophrasti, pre-emergence, 250 g ai/ha, scale 0-100, read-out: Plant response rating, Velvetleaf): 70% | pest or weed control at 500 g/ha (velvetleaf; Abutilon theophrasti, pre-emergence, 500 g ai/ha, scale 0 to 100 (0 no effect, 100 complete control), visual, 12 to 14 days, read-out: Plant response rating, Velvetleaf): 100% | pest or weed control at 62 g/ha (barnyardgrass; 62 g ai/ha, scale 0 to 100 (0 no effect, 100 complete control), read-out: Barnyardgrass plant response rating): 25% | pest or weed control at 125 g/ha (barnyardgrass; 125 g ai/ha, scale 0 to 100 (0 no effect, 100 complete control), read-out: Barnyardgrass plant response rating): 45% | pest or weed control at 250 g/ha (barnyardgrass; 250 g ai/ha, scale of 0 to 100, 0 is no effect, 100 is complete control, read-out: Barnyardgrass plant response rating): 65% | pest or weed control at 500 g/ha (barnyardgrass; 500 g ai/ha, visual rating after 12 to 14 days, scale 0 to 100 (0 no effect, 100 complete control), read-out: Plant response rating, Barnyardgrass): 90%
